Data taken from PubChem BioAssay (NCI).
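Five concentrations, 48 hours, 96-well plates. Abbreviation: GI50, concentration required for 50% inhibition of growth. TGI: total growth inhibition.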

Assays:
Test in all cases: growth of human tumour cells (NCI), 48 h
[1] = system: A549 NSCLC
[2] = system: HOP-62 NSCLC
[3] = system: SK-OV-3 ovarian
[4] = system: CCRF-CEM leukemia
[5] = system: SK-MEL-28 melanoma
[6] = system: OVCAR-4 ovarian
[7] = system: COLO 205 colon
[8] = system: PC-3 prostate
[9] = system: HCT-116 colon
[10] = system: SK-MEL-2 melanoma

Row | Compound | TGI [1] [µM] | TGI [2] [µM] | TGI [3] [µM] | TGI [4] [µM] | TGI [5] [µM] | TGI [6] [µM] | TGI [7] [µM] | TGI [8] [µM] | TGI [9] [µM] | TGI [10] [µM] | GI50 [2] [µM] | GI50 [3] [µM] | GI50 [4] [µM] | GI50 [6] [µM] | GI50 [7] [µM] | GI50 [1] [µM] | GI50 [5] [µM] | GI50 [8] [µM] | GI50 [9] [µM] | GI50 [10] [µM]
1 | CN(C)CCNC(=O)c1cccc2c(NC(CCCN=C(N)N)C(=O)O)c3ccccc3nc12 (centres undefined) | > 100 | 90.8 | > 100 | > 100 | 89.2 | 27.7 | > 100 | > 100 | 67.8 | 38.4 | – | – | – | – | – | – | – | – | – | –
2 | CC(C)C(C=O)C(O)(C(F)(F)F)C(F)(F)F (centres undefined) | > 100 | – | > 100 | – | > 100 | > 100 | > 100 | > 100 | > 100 | > 100 | – | – | – | – | – | – | – | – | – | –
3 | O=C(NC1CCCCC1)N1CCNC1=S | > 100 | > 100 | > 100 | > 100 | > 100 | > 100 | > 100 | – | > 100 | 7.09 | – | – | – | – | – | – | – | – | – | –
4 | OC[C@@H](O)[C@H](O)[C@H](O)[C@@H](O)C1SCCCS1 | > 100 | > 100 | > 100 | – | > 100 | > 100 | > 100 | > 100 | > 100 | > 100 | – | – | – | – | – | – | – | – | – | –
5 | CN1CN(c2ccccc2)C2(CCN(C(=O)OC(C)(C)C)CC2)C1=O | > 100 | > 100 | > 100 | > 100 | > 100 | > 100 | > 100 | > 100 | > 100 | > 100 | – | – | – | – | – | – | – | – | – | –
6 | COc1ccc2cc(CNCCOCCOCCNCc3ccc4cc(OC)ccc4c3)ccc2c1 | 3.12 | 3.87 | 3.28 | 1.24 | 2.69 | 4.07 | 0.346 | 3.16 | 7.86 | 3.18 | – | – | – | – | – | – | – | – | – | –
7 | COc1ccc2nc3c(nc2c1)C(C)(C)C=C3c1ccc(Br)cc1 | > 100 | > 100 | – | > 100 | – | > 100 | > 100 | > 100 | > 100 | > 100 | – | – | – | – | – | – | – | – | – | –
8 | Nc1nc(Cl)cc(Oc2ccc(Cl)cc2)n1 | > 100 | > 100 | > 100 | > 100 | > 100 | > 100 | > 100 | > 100 | > 100 | > 100 | – | – | – | – | – | – | – | – | – | –
9 | C=c1c2ccccc2oc2nc3[nH]c(N)c(C#N)c(N)c3c(=N)c12 | > 100 | > 100 | > 100 | > 100 | > 100 | > 100 | > 100 | 66.9 | > 100 | 37.8 | – | – | – | – | – | – | – | – | – | –
10 | O=C(O)C(=Cc1ccc(-c2ccc([N+](=O)[O-])cc2)o1)C(=O)O | > 100 | > 100 | > 100 | > 100 | > 100 | – | > 100 | > 100 | > 100 | > 100 | – | – | – | – | – | – | – | – | – | –
11 | Cn1cnc([N+](=O)[O-])c1Sc1nnc(-c2ccc(Cl)cc2)n1C | > 100 | > 100 | > 100 | 22 | 27.4 | 27.1 | 24.3 | – | 25.8 | 34.8 | – | – | – | – | – | – | – | – | – | –
12 | Cn1c(SCc2ccc([N+](=O)[O-])cc2)nnc1C12CC3CC(CC(C3)C1)C2 | > 10 | > 10 | > 10 | > 10 | > 10 | > 10 | > 10 | > 10 | > 10 | > 10 | – | – | – | – | – | – | – | – | – | –
13 | COc1c(C(=O)CC2c3c(cc4oc(C)cc(=O)c4c3OC)OC(=N)C2c2nc3ccccc3[nH]2)c(O)c(OC)c2occc12 (centres undefined) | > 100 | > 100 | > 100 | > 100 | > 100 | > 100 | > 100 | > 100 | > 100 | > 100 | – | – | – | – | – | – | – | – | – | –
14 | CC(=O)Nc1ccc(S(=O)(=O)Nc2cnc3ccccc3n2)cc1 | > 100 | > 100 | > 100 | > 100 | > 100 | > 100 | > 100 | – | – | > 100 | – | – | – | – | – | – | – | – | – | –
15 | CC(C)(C)c1ccc(OCCOc2ccc(C(C)(C)C)cc2NC=O)c(NC=O)c1 | > 100 | 28 | > 100 | > 45.3 | 32.6 | 54.2 | 4.33 | > 100 | 33.5 | 36.6 | – | – | – | – | – | – | – | – | – | –
16 | Nc1ccc(Oc2ccc(C34CC5CC(C3)CC(c3ccc(Oc6ccc(N)c(O)c6)cc3)(C5)C4)cc2)cc1O | 3.24 | 12 | 8.57 | – | 6.21 | 5.28 | 2.85 | 5.69 | – | 5.1 | – | – | – | – | – | – | – | – | – | –
17 | CN(C)CC(O)CNC(=O)Nc1ccccc1 (centres undefined) | > 100 | > 100 | > 100 | > 100 | > 100 | > 100 | > 100 | > 100 | > 100 | > 100 | – | – | – | – | – | – | – | – | – | –

Row | Compound | TGI [1] [µM] | TGI [2] [µM] | TGI [3] [µM] | TGI [4] [µM] | TGI [5] [µM] | TGI [6] [µM] | TGI [7] [µM] | TGI [8] [µM] | TGI [9] [µM] | TGI [10] [µM] | GI50 [2] [µM] | GI50 [3] [µM] | GI50 [4] [µM] | GI50 [6] [µM] | GI50 [7] [µM] | GI50 [1] [µM] | GI50 [5] [µM] | GI50 [8] [µM] | GI50 [9] [µM] | GI50 [10] [µM]
18 | CC(=O)O[C@H]1C(=O)[C@@]2(C)C(C(OC(=O)c3ccccc3)[C@]3(O)CC(OC(=O)C(O)C(NC(=O)c4cccc(Cl)c4)c4ccccc4)C(C)=C1C3(C)C)[C@]1(OC(C)=O)CO[C@@H]1C[C@@H]2O (some centres undefined) | > 10 | > 10 | > 10 | 5.91 | – | > 10 | 4.58 | > 10 | 5.12 | > 10 | – | – | – | – | – | – | – | – | – | –
19 | Cc1ccc2c(=O)cc(-c3ccccc3)[nH]c2n1 | > 100 | > 100 | > 21 | – | > 100 | > 100 | – | 26.7 | 59.4 | > 100 | – | – | – | – | – | – | – | – | – | –
20 | COc1cc(/C=[N+](\[O-])c2ccccc2Cl)ccc1OC(=S)S | > 100 | > 100 | > 100 | – | > 100 | 27.8 | 51 | > 100 | > 100 | > 100 | – | – | – | – | – | – | – | – | – | –
21 | COc1ccc(CNCCN2C(=O)c3ccc4c5c(ccc(c35)C2=O)C(=O)N(CCNCc2ccc(OC)c(OC)c2OC)C4=O)c(OC)c1OC | – | 1.08 | 50 | 50 | – | 0.146 | 0.168 | – | – | – | 0.248 | 1.67 | 0.273 | 0.0762 | 0.0899 | – | – | – | – | –
22 | COc1ccccc1-c1nc[nH]c1-c1ccccc1OC | > 100 | > 100 | > 100 | – | > 100 | > 100 | – | > 100 | > 100 | > 100 | – | – | – | – | – | – | – | – | – | –
23 | O=C(/C=C/c1cc2ccccc2[nH]c1=O)c1ccc(O)cc1 | 11.8 | 8.18 | – | > 100 | 19.5 | – | 19.7 | 55.3 | 4.38 | 13.6 | 2.62 | – | 2.38 | – | 4.51 | 2.73 | 5.11 | 5.39 | 1.94 | 4.13
24 | CCOC(=O)C1=C(C)NC(c2ccccc2)=C(C(=O)OCc2ccccc2)C1C#Cc1ccccc1 (centres undefined) | – | > 100 | > 100 | > 100 | – | – | > 100 | > 100 | > 100 | > 100 | – | – | – | – | – | – | – | – | – | –
25 | COc1cc2ccnc3c2c(c1OC)N(C)C=C3 | 41 | > 100 | 79.3 | – | > 100 | 71.2 | 96.3 | > 100 | 37.9 | 57.6 | – | – | – | – | – | – | – | – | – | –
26 | CCOC(=O)/C(C(N)=O)=C(/O)c1cnccn1 | > 100 | – | > 100 | > 100 | > 100 | > 100 | > 100 | > 100 | > 100 | > 100 | – | – | – | – | – | – | – | – | – | –
27 | COc1ccc(C2=Nn3c(nc4sc5c(c4c3=O)CCCC5)SC2)cc1 | > 100 | > 100 | > 100 | > 100 | > 100 | > 100 | > 100 | > 100 | > 100 | – | – | – | – | – | – | – | – | – | – | –
28 | Nc1nc(Cl)cc(OCC2(CO)CCCCC2)n1 | > 100 | > 100 | – | > 100 | > 100 | > 100 | – | > 100 | > 100 | – | – | – | – | – | – | – | – | – | – | –
29 | CCOC(=O)C(NS(=O)(=O)c1ccccc1)(C(F)(F)F)P(=O)(OCC(C)C)OCC(C)C (centres undefined) | > 100 | > 100 | > 100 | > 100 | > 100 | > 100 | > 100 | > 100 | > 100 | – | – | – | – | – | – | – | – | – | – | –
30 | CCN1CC2(CO)CCC(OC)C34C5CC6C(OC)CC(O)(C5C6OC)C(O)(C(OC)C23)C14 (centres undefined) | > 375 | > 375 | > 375 | > 375 | > 375 | > 375 | > 375 | – | > 375 | > 63.9 | – | – | – | – | – | – | – | – | – | –
31 | O=C(N/N=C/c1ccc(O)cc1)NNCCO | > 100 | > 100 | > 100 | > 100 | > 100 | – | > 100 | > 100 | > 100 | > 100 | – | – | – | – | – | – | – | – | – | –
32 | C=C1C(=O)OC2C=C(C)CC3C=C(CCC=C(C)CCC12)C(=O)O3 (centres undefined) | 203 | 216 | 280 | 104 | 119 | 131 | 115 | – | 85.6 | 101 | – | – | – | – | – | – | – | – | – | –
33 | CCN(CC)CCNC(=O)C1COc2ccc(-c3cc(=O)c4ccccc4o3)cc2O1 (centres undefined) | 49.8 | 47 | 47 | 68.6 | 33.4 | 35.8 | 34 | – | 32.7 | 38 | – | – | – | – | – | – | – | – | – | –
